The results in this text go back to DBAASP.

A word on the MIC: it is the lowest concentration that inhibits growth of the organism. The low end stands for greater potency, the high end for weaker potency.

The structures appear in SMILES notation. Values after ≈ are worked out from the molar mass of the structure shown. Bounds are passed on as bounds.

Test in all cases: ≥ marks a high value that may be exact or a test limit, other limits are often not marked, values filed in µg/mL are converted to µM
Experiment [1] has as its system Staphylococcus aureus ATCC 25923.
Experiment [2] relates to Klebsiella pneumoniae ATCC 700603.
Experiment [3] relates to Pseudomonas aeruginosa ATCC 10145.
For experiment [4], the system named is Escherichia coli MG1655.
For experiment [5], the system named is Pseudomonas aeruginosa PAO1.
Experiment [6] concerns Candida albicans.
In experiment [7] the test system is Escherichia coli JW0013.

`CC(C)C[C@H](NC(=O)[C@H](Cc1ccc(O)cc1)NC(=O)[C@H](Cc1cnc[nH]1)NC(=O)[C@H](CCCCN)NC(=O)[C@H](CC(C)C)NC(=O)[C@H](C)NC(=O)[C@H](CC(C)C)NC(=O)[C@H](CCCCN)NC(=O)CNC(=O)[C@@H](NC(=O)[C@@H](NC(=O)[C@H](CCCCN)NC(=O)[C@@H](NC(=O)[C@H](CCC(=O)O)NC(=O)[C@H](C)NC(=O)[C@H](CCCCN)NC(=O)[C@H](CCCCN)NC(=O)[C@H](CC(C)C)NC(=O)[C@H](CC(C)C)NC(=O)[C@@H](NC(=O)[C@H](CCCN=C(N)N)NC(=O)[C@H](Cc1c[nH]c2ccccc12)NC(=O)CN)[C@@H](C)O)C(C)C)[C@@H](C)O)C(C)C)C(=O)O` [GWRTLLKKAEVKTVGKLALKHYL]: the MIC in experiment [1] is 4.15 µM (≈ 11 µg/mL); in experiment [2] it was 4.15 µM (≈ 11 µg/mL); in experiment [3], 0.25 µM (≈ 0.663 µg/mL); in experiment [4], 8.3 µM (≈ 22 µg/mL).
Regarding `CSCC[C@H](NC(=O)[C@@H](NC(=O)[C@@H](N)CCCCN)C(C)C)C(=O)N[C@@H](CCCN=C(N)N)C(=O)N[C@@H](CCC(=O)O)C(=O)N[C@H](C(=O)N[C@@H](CC(C)C)C(=O)NCC(=O)N[C@@H](Cc1ccc(O)cc1)C(=O)N[C@@H](CCC(=O)O)C(=O)N[C@@H](CCCN=C(N)N)C(=O)N[C@@H](CC(N)=O)C(=O)N[C@@H](CO)C(=O)N[C@@H](Cc1ccc(O)cc1)C(=O)N[C@@H](CCCCN)C(=O)N[C@@H](CCCCN)C(=O)N[C@@H](Cc1ccccc1)C(=O)N[C@@H](Cc1ccccc1)C(=O)N[C@@H](CC(C)C)C(=O)N[C@@H](CCCN=C(N)N)C(N)=O)C(C)C` [KVMREVLGYERNSYKKFFLR], the MIC was greater than 128 µM in experiment [1], greater than 128 µM in experiment [5], 128 µM (≈ 328 µg/mL) in experiment [6] and no less than 128 µM in experiment [4].
Regarding `CC[C@H](C)[C@H](NC(=O)[C@H](CCCN=C(N)N)NC(=O)[C@H](CCCN=C(N)N)NC(=O)[C@@H]1CCCN1C(=O)[C@@H]1CCCN1C(=O)[C@H](CCCN=C(N)N)NC(=O)[C@@H]1CCCN1C(=O)[C@H](CCCN=C(N)N)NC(=O)[C@@H]1CCCN1C(=O)[C@H](CC(C)C)NC(=O)[C@H](Cc1ccc(O)cc1)NC(=O)[C@@H]1CCCN1C(=O)[C@@H]1CCCN1C(=O)[C@H](CCCCN)NC(=O)[C@H](CC(=O)O)NC(=O)[C@@H](N)CC(C)C)C(=O)N[C@@H](Cc1ccc(O)cc1)C(=O)N[C@@H](CC(N)=O)C(=O)N[C@@H](CCCN=C(N)N)C(N)=O` [LDKPPYLPRPRPPRRIYNR], the MIC in experiment [7] was 2 µM (≈ 4.8 µg/mL).
As for `CC[C@H](C)[C@H](NC(=O)[C@@H]1CCCN1C(=O)[C@H](CCCN=C(N)N)NC(=O)[C@@H]1CCCN1C(=O)[C@@H]1CCCN1C(=O)[C@@H](NC(=O)[C@@H]1CCCN1C(=O)[C@H](CCCN=C(N)N)NC(=O)[C@@H]1CCCN1C(=O)[C@H](CCCCN)NC(=O)[C@H](Cc1ccc(O)cc1)NC(=O)[C@H](CO)NC(=O)CNC(=O)[C@H](CCCCN)NC(=O)[C@H](CC(=O)O)NC(=O)[C@@H](N)C(C)C)[C@@H](C)O)C(=O)N[C@@H](Cc1ccc(O)cc1)C(=O)N[C@@H](CC(N)=O)C(=O)N[C@@H](CCCN=C(N)N)C(=O)N[C@@H](CC(N)=O)C(=O)O` [VDKGSYKPRPTPPRPIYNRN], the minimum inhibitory concentration (MIC) in experiment [7] came to 0.3 µM (≈ 0.707 µg/mL).
Regarding `CC[C@H](C)[C@H](NC(=O)[C@H](CCCN=C(N)N)NC(=O)[C@H](CCCN=C(N)N)NC(=O)[C@@H]1CCCN1C(=O)[C@@H]1CCCN1C(=O)[C@H](CCCN=C(N)N)NC(=O)[C@@H]1CCCN1C(=O)[C@H](CCCN=C(N)N)NC(=O)[C@@H]1CCCN1C(=O)[C@H](CC(C)C)NC(=O)[C@H](Cc1ccc(O)cc1)NC(=O)CNC(=O)[C@@H]1CCCN1C(=O)[C@H](CCCCN)NC(=O)[C@H](CC(=O)O)NC(=O)[C@@H](N)C(C)C)C(=O)N[C@@H](Cc1ccc(O)cc1)C(=O)N[C@@H](CC(N)=O)C(=O)N[C@@H](CCCN=C(N)N)C(N)=O` [VDKPGYLPRPRPPRRIYNR], in experiment [7], the MIC worked out at 2.04 µM (≈ 4.8 µg/mL). This MIC lies about 6.8-fold higher than the previous one.
